Where two headings read alike, the source gives them in different places.
How the values were obtained:
[1] = Confirmation of solubility of tocopheryl glucoside (visual observation of vials); conditions: aqueous composition not containing HD
Description: The solubility of the D-δ-tocopheryl glucoside (hereinafter, may be abbreviated as "δ-TPG") was examined.
9.9 g of each of the mixtures was placed in individual vials, 0.01 g of solid δ-TPG was added to each vial, and the mixture was stirred at room temperature. After stirring for 1 hour, the state of each vial was observed.

TRPV4 gene = experiment: cells; assay type: cell-based, human; conditions: for Expression level of TRPV4 gene (relative value): nhek cells, 10 µM; for fold induction at 10 µM: Homo sapiens, NHEK, light or radiation study, read-out: Expression level of TRPV4 gene (relative value)
Description: • (Confirmation of activity of aqueous composition containing δ-TPG and HD: expression of TRPV4 gene) • Normal human epidermal keratinocytes (NHEK, manufactured by KURABO INDUSTRIES LTD.) were seeded in a plastic petri dish at a seeding density of 10,000 cells/cm^2, and cultured for 24 hours in a normal human epidermal keratinocyte serum-free culture medium (manufactured by KURABO INDUSTRIES LTD.).
8.94 g of water, 1.0 g of HD, and 0.06 g of δ-TPG were mixed and stirred to obtain an aqueous composition. The above-described aqueous composition was added to a culture solution in which the above-described NHEK cells had been cultured for 24 hours, such that the final concentration of δ-TPG was 10 µM.
After adding the δ-TPG, the above-described culture solution was further cultured for 48 hours. Thereafter, the culture solution was irradiated with UVB at 60 mJ/cm^2 using a UVB irradiation device of UVP, LLC. Thereafter, a fresh normal human epidermal keratinocyte growth medium was added to the above-described culture solution, and the culture was further carried out for 24 hours. In this manner, evaluation cells were obtained.
Total RNA was extracted from the evaluation cells obtained above, and cDNA was synthesized. Subsequently, quantitative real-time PCR was carried out using the above-described cDNA as a template, and the expression level of the TRPV4 gene in the NHEK cells was quantified. The expression level of glyceraldehyde 3-phosphate dehydrogenase (GAPDH) was quantified as an internal standard gene. […] The expression level of the TRPV4 gene was standardized with reference to the expression level of the GAPDH gene in the NHEK cells. As a primer for amplifying the GAPDH gene, a primer GAPDH (ID: HA067812) manufactured by Takara Bio Inc. was used. As a primer for amplifying the TRPV4 gene, a primer TRPV4 (ID: HA186338) manufactured by Takara Bio Inc. was used.
The same operation as described above was carried out using, instead of δ-TPG, D-α-tocopheryl glucoside (hereinafter, may be abbreviated as "α-TPG"), tocopherol acetate (FUJIFILM Wako Pure Chemical Corporation; hereinafter, may be abbreviated as "TPA"), δ-tocopherol (Sigma-Aldrich Co., LLC; hereinafter, may be abbreviated as "δ-TP"), or α-tocopherol (SEIKO-EPSON CORPORATION; hereinafter, may be abbreviated as "α-TP"), thereby obtaining evaluation cells. The expression level of the TRPV4 gene was measured for these evaluation cells by the same operation as described above.
The expression level of the TRPV4 gene was determined as a relative value when the expression level of the TRPV4 gene in reference cells was set to 1. The reference cells were prepared by culturing the NHEK cells without adding a test compound to the cell culture solution and without irradiating the cells with UVB. HD was added to the cell culture solution of the reference cells so that the HD concentration in the cell culture solution was the same as that in the culture solution when δ-TPG was added and cultured. The culture conditions for the NHEK cells were the same as those when δ-TPG was added, except that δ-TPG was not added and UVB irradiation was not carried out.
Comparative cells were prepared by culturing the NHEK cells by not adding the test compound to the cell culture solution and irradiating the cells with UVB. […] The expression level of the TRPV4 gene in the comparative cells was determined by the same method as described above.

claudin 1 (CLDN1) gene = experiment: Expression of TJ-related gene CLDN1 in UVB-irradiated NHEK cells, quantitative real-time PCR; assay type: cell-based, human; conditions: for fold induction at 10 µM: Homo sapiens, light or radiation study, read-out: Expression level of gene (relative value) CLDN1 gene
Description: (§1) • (Confirmation of activity of aqueous composition with δ-TPG and HD: effect of promoting expression of TJ-related gene) • Normal human epidermal keratinocytes (NHEK, manufactured by KURABO INDUSTRIES LTD.) were subjected to the same operation as in Experimental Example 2 to obtain evaluation cells.
(§2) Total RNA was extracted from the evaluation cells thus obtained, and cDNA was synthesized. Subsequently, quantitative real-time PCR was carried out using the above-described cDNA as a template, and the expression levels of the claudin 1 (CLDN1) gene and occludin (OCL) gene in the NHEK cells were quantified. In addition, the expression level of GAPDH was quantified as an internal standard gene. The expression levels of the CLDN1 gene and OCL gene were standardized with reference to the expression level of the GAPDH gene in the NHEK cells. As a primer for amplifying the GAPDH gene, a primer GAPDH (ID: HA067812) manufactured by Takara Bio Inc. was used. As a primer for amplifying the CLDN1 gene, a primer CLDN1 (ID: HA103348) manufactured by Takara Bio Inc. was used. As a primer for amplifying the OCL gene, a primer OCL (ID: HA036753) manufactured by Takara Bio Inc. was used.
(§3) The same operation as described above was performed using, instead of δ-TPG, α-TPG, TPA, δ-TP, or α-TP to obtain evaluation cells. The expression levels of the CLDN1 gene and OCL gene were measured for these evaluation cells by the same operation as described above.
(§4) The expression level of each gene was determined as a relative value when the expression level of each gene in reference cells was set to 1. The reference cells were prepared by the same operation as the reference cells in Experimental Example 2.
(§5) The expression levels of the CLDN1 gene and OCL gene in comparative cells were determined by the same method as described above. The comparative cells were prepared by the same operation as the comparative cells in Experimental Example 2.

occludin (OCL) gene = experiment: Expression of TJ-related gene OCL in UVB-irradiated NHEK cells, quantitative real-time PCR; assay type: cell-based, human; conditions: for fold induction at 10 µM: Homo sapiens, light or radiation study, read-out: Expression level of gene (relative value) OCL gene
Description: as §1, §2, §3, §4, §5

[2] = test system: skin model (model "EP1-200"); experiment: TJ-forming ability evaluation test: transepidermal water loss (TEWL) of skin model; assay type: cell-based; conditions: cultured 24 hours
Description: A skin model (model "EP1-200", manufactured by KURABO INDUSTRIES LTD.) was pre-cultured for 1 hour under the conditions of 37°C and 5% CO2. Subsequently, δ-TPG dissolved in a 0.5% by mass HD aqueous solution at a concentration of 0.2% by mass was added to the surface of the skin model, and the skin model was further cultured for 24 hours. Subsequently, δ-TPG was removed, the sample was washed three times with a phosphate buffer solution, and the transepidermal water loss (TEWL) was measured. A cyclone water vaporizer (manufactured by ASCH JAPAN Co.,Ltd.) was used for measuring the TEWL.
TEWL was measured by performing the same operation as described above using TPA instead of δ-TPG.
For comparison, a 0.5% by mass HD aqueous solution not containing δ-TPG instead of δ-TPG dissolved in a 0.5% by mass HD aqueous solution was used, and the same operation as described above was performed to measure the TEWL.
The same operation as described above was performed using δ-TP dissolved in 1% by mass of HD at a concentration of 0.2% by mass, instead of δ-TPG dissolved in 0.5% by mass of HD, and the TEWL was measured.
It was confirmed that TEWL was suppressed in the group in which δ-TPG was added. […]

[3] = NHEK cells, final concentration 10 µM, UVB 60 mJ/cm^2 performed, relative to reference cells (HD, no UVB) = 1, standardized to GAPDH
[4] = 0.2% by mass in 0.5% by mass HD aqueous solution on skin model surface

Expression level of TRPV4 gene (relative value) (TRPV4 gene)	Molecule	fold induction at 10 µM (TRPV4 gene)	fold induction at 10 µM (claudin 1 (CLDN1) gene; [3])	fold induction at 10 µM (occludin (OCL) gene; [3])	TEWL [2, 4]	other results
	tocopheryl glucoside					solubility of tocopheryl glucoside [1]: not sufficiently dissolved
0.77	D-α-tocopheryl glucoside [α-TPG/HD]					Expression level of gene (relative value) CLDN1 gene (claudin 1 (CLDN1) gene; [3]): 1.24; Expression level of gene (relative value) OCL gene (occludin (OCL) gene; [3]): 3.24
0.54	δ-tocopherol [δ-TP/HD]					Expression level of gene (relative value) CLDN1 gene (claudin 1 (CLDN1) gene; nhek cells, 10 µM): 1.00; Expression level of gene (relative value) OCL gene (occludin (OCL) gene; nhek cells, 10 µM): 1.91; TEWL ([2]; 0.2% by mass in 1% by mass of HD on skin model surface): 8.2 ± 1.2 g/(h·m^2)
	Cc1c(C)c2c(c(C)c1O)CCC(C)(CCCC(C)CCCC(C)CCCC(C)C)O2 (stereo not drawn) [α-TP/HD, α-tocopherol]	0.43				fold induction at 10 µM (claudin 1 (CLDN1) gene; NHEK): 1; fold induction at 10 µM (occludin (OCL) gene; NHEK): 2.48
	Cc1cc(OC2OC(CO)C(O)C(O)C2O)cc2c1OC(C)(CCCC(C)CCCC(C)CCCC(C)C)CC2 [δ-TPG, D-δ-tocopheryl glucoside]	0.83	1.28	3.45	7.9 ± 1.7 g/(h·m^2)	
	CC(=O)Oc1c(C)c(C)c2c(c1C)CCC(C)(CCCC(C)CCCC(C)CCCC(C)C)O2 (stereo not shown) [TPA/HD, tocopherol acetate]	0.29	0.77	1.12	12.4 ± 0.8 g/(h·m^2)	

— EP4640207A1, “AQUEOUS COMPOSITION AND EXTERNAL PREPARATION FOR SKIN” (Resonac Corporation, priority 2022, dated 2024)
